Test results reported in patent US20170035713A1, “SYNERGISTIC COMBINATIONS OF CAROTENOIDS AND POLYPHENOLS” (LYCORED LTD., priority 2009, published 2017).

Experiments:
Format in all cases: cell-based, mouse
[1] = system: macrophage superoxide production; assay: Superoxide production by macrophages (ferricytochrome c reduction); conditions: optimal low concentrations
Protocol: Peritoneal macrophages were isolated and treated as described hereinabove in Example 1.
Superoxide production: The production of superoxide anion (O2^−) by macrophages was measured as the superoxide dismutase-inhibitable reduction of ferricytochrome c by the microtiter plate technique, as known in the prior art. An aliquot of radiolabelled macrophages (5× 10^5 cells/well) used for the adherence assay was taken and suspended in 100 μl incubation medium containing ferricytochrome c ([…]). Stimulation was induced with PMA (50 ng/ml). The reduction of ferricytochrome c was followed by a change of absorbance at 550 nm at 2 min intervals for 30 min on a Thermomax Microplate Reader (Molecular Devices, Melno Park, Calif., USA). The maximal rates of superoxide generation were determined and expressed as nanomoles O2^−/10^6 cells/10 min using the extinction coefficient E550=21 mM^−1 cm^−1.

[2] = system: TNF-alpha production by peritoneal macrophages; assay: TNF-alpha production assay (ELISA) in LPS-stimulated peritoneal macrophages; conditions: FIG. 3; same set of experiments and concentrations as FIG. 2
Protocol: Macrophage isolation and cell culture—Peritoneal macrophages were collected from the peritoneal cavity of 6-8 week old male ICR mice (Harlan, Israel) that had been given an intraperitoneal injection of 1.5 ml of thioglycollate broth (4%) 4 days before harvest. Peritoneal macrophages were washed three times with PBS and, if needed, a hypotonic lysis of erythrocytes was performed, yielding 90-95% purity. The macrophages were identified by FACS analysis using FITC-conjugated rat anti-mouse F4/80 (MCA497F) (Serotec, Oxford, England) by flow microfluorimetry on FACS (Becton Dickinson, Mountain View, Calif.). For each sample, 10,000 light scatter-gated viable cells were analyzed. Peritoneal macrophages and murine macrophage cell line RAW264.7 were cultured RPMI 1640 medium containing 10% FCS, 2 mM L-glutamine; 100 U/ml penicillin; 100 μg/ml streptomycin (Beit-Haemek, Israel) in 96-well plates (1×10^6 cells/well) at 37° C. in 5% CO2 atmosphere. […]
(§1) Appropriate volumes of DMSO (0.1-0.2%) were added to the controls and the percent inhibition in each test tube was calculated in relation to its control.
TNF-alpha production assay—Concentrations of TNF-alpha were quantified using ELISA kits (Biolegend Inc., San Diego, Calif.).

[3] = system: NO production by peritoneal macrophages; assay: NO production assay in LPS-stimulated peritoneal macrophages (Example 1)
Protocol: (§2) Macrophage isolation and cell culture—Peritoneal macrophages were collected from the peritoneal cavity of 6-8 week old male ICR mice (Harlan, Israel) that had been given an intraperitoneal injection of 1.5 ml of thioglycollate broth (4%) 4 days before harvest. Peritoneal macrophages were washed three times with PBS and, if needed, a hypotonic lysis of erythrocytes was performed, yielding 90-95% purity. The macrophages were identified by FACS analysis using FITC-conjugated rat anti-mouse F4/80 (MCA497F) (Serotec, Oxford, England) by flow microfluorimetry on FACS (Becton Dickinson, Mountain View, Calif.). For each sample, 10,000 light scatter-gated viable cells were analyzed. Peritoneal macrophages and murine macrophage cell line RAW264.7 were cultured RPMI 1640 medium containing 10% FCS, 2 mM L-glutamine; 100 U/ml penicillin; 100 μg/ml streptomycin (Beit-Haemek, Israel) in 96-well plates (1×10^6 cells/well) at 37° C. in 5% CO2 atmosphere. Cells were stimulated with LPS (0.1-1 μg/ml) in the presence or absence of carnosic acid and/or one or more of the following carotenoids: carnosic acid, purified lycopene, lycopene-rich tomato extract (Lyc-O-Mato®; LycoRed Ltd., Be'er Sheva, Israel), lutein and beta-Carotene.
(§3) The carnosic acid and the various carotenoids were dissolved in DMSO (to a final concentration of 5 mM). The mixture was vortexed and incubated in a water bath at 37° C. (with shaking) for 10 min and then sonicated in a sonicator bath three times for 15 seconds each time. Using this stock solution the desired concentrations were prepared by the addition of appropriate volumes thereof to warm culture medium.
as §1
NO production assay—NO levels in supernatants of cell cultures were determined by assaying nitrite levels using Griess reagent and sodium nitrite as a standard as described in Green, L. C., Wagner, D. A., Glogowski, J., Skipper, P. L., Wishnok, J. S., and Tannenbaum, S. R. (1982) Anal Biochem. 126: 131-138.

[4] = system: PGE2 production by peritoneal macrophages; assay: PGE2 measurement (radio-immunoassay) in LPS-stimulated peritoneal macrophages; conditions: for inhibition of PGE2 production: used alone, FIG. 4 / FIG. 5a upper panel, same set of experiments as FIG. 2; for inhibition of PGE2 production (in words): FIG. 5a/5b lower panel, lutein 0.5 μM, beta-Carotene 1 μM, carnosic acid 1 μM
Protocol: as §2, §3, §1
PGE2 measurement—Supernatants of resting and stimulated cells were collected and immediately stored at −70° C. PGE2 levels were determined by utilizing a dextran coated charcoal radio-immunoassay protocol as previously described (Dror N, Tveria L, Meniv I, Ben-Shmuel S, Filipovich T, Fleisher-Berkovich S., Regul Pept. 2008 150: 21-5).
Briefly, 100 μl sample or PGE2 standard (Sigma Israel, Rehovot, Israel) were incubated in the presence of 500 μl anti-PGE2 anti-serum (Sigma Israel, Rehovot, Israel) for 30 min. [^3H]PGE2 (Amersham Biosciences, NJ, USA) was added next for 24 h at 4° C. 24 h later, 200 […]μl cold dextran coated charcoal suspension was added to each tube and incubated for 10 min on ice. The tubes were centrifuged at 3500 RPM for 15 min at 4° C. 500 μl of supernatants containing [^3H]PGE2-anti-PGE2 complexes were counted (Packard Spectrometry 1900CA) and the amount of PGE2 was calculated.

[5] = system: LPS stimulated NO production by macrophages; assay: NO production assay in LPS-stimulated peritoneal macrophages, curcumin, lutein and Lycomato (second Example 1)
Protocol: Macrophage isolation and cell culture—Peritoneal macrophages were collected from the peritoneal cavity of 6-8 week old male ICR mice (Harlan, Israel) that had been given an intraperitoneal injection of 1.5 ml of thioglycollate broth (4%) 4 days before harvest. Peritoneal macrophages were washed three times with PBS and, if needed, a hypotonic lysis of erythrocytes was performed, yielding 90-95% purity. The macrophages were identified by FACS analysis using FITC-conjugated rat anti-mouse F4/80 (MCA497F) (Serotec, Oxford, England) by flow microfluorimetry on FACS (Becton Dickinson, Mountain View, Calif.). For each sample, 10,000 light scatter-gated viable cells were analyzed. Peritoneal macrophages were cultured in RPMI 1640 medium containing 10% FCS, 2 mM L-glutamine; 100 U/ml penicillin; 100 μg/ml streptomycin (Beit-Haemek, Israel) in 96-well plates (2×10^5 cells/well) at 37° C. in 5% CO2 atmosphere. LycoMato, Lutein and curcumin-PC (Indena product) and, for comparison, LycoMato, Lutein and pure curcumin and their various combinations were added to the cells. One hour later, LPS (0.2 μg/ml) was added and the macrophages were cultured at 37° C. in a 5% CO2 atmosphere for 24 h.
Curcumin PC (Indena) was dissolved in Diethylene glycol monoethyl ether from Sigma (as recommended by Indena). The volume of solvent was 0.12% for 1 µM curcumin PC. The concentration of curcumin PC was calculated according to its content in the formula (Curcumin PC). Lycomato and Lutein or curcumin were dissolved in DMSO (the volume of DMSO in the test solution was 0.01% for either 1 […] Lycomato, Lutein or pure curcumin. The mixture was vortexed and shaken at 37° C. for 10 min and sonicated in a sonicator bath for 15 sec×3 times. From this stock solution the desired concentrations were made by addition of appropriate volumes to warm culture medium. The concentration of lycopene in solution was calculated to 1 ml of the highest final concentration 0.5 ml isopropanol+1.5 ml hexane/dichloromethane (1:5 V/V) containing 0.025% BHT. The solution is vortexed and the phases are separated by centrifugation 3000 rpm for 10 min. A spectrum was done to detect the level of nutrients.
To the controls appropriate volumes of DMSO and/or Diethylene glycol monoethyl ether were added and the percent inhibition of each test tube was calculated in relation to its control tube.
NO production assay—NO levels in supernatants of cell cultures were determined by assaying nitrite levels using Griess reagent and sodium nitrite as a standard.

[6] = Mus musculus, Peritoneal macrophage, read-out: inhibition of NO production

SMILES: CC(C)=CCC/C(C)=C/C=C/C(C)=C/C=C/C(C)=C/C=C/C=C(C)/C=C/C=C(C)/C=C/C=C(\C)CCC=C(C)C [lycopene]
- inhibition of superoxide production (in words) ([1]; FIG. 9): lack of detectable inhibition
- inhibition of TNF-alpha production (in words) [2]: lack of detectable inhibition
- inhibition of NO production (in words) ([3]; alone, range of 1-5 μM): low level inhibition

SMILES: CC(C)c1cc2c(c(O)c1O)[C@@]1(C(=O)O)CCCC(C)(C)[C@@H]1CC2 [carnosic acid]
- inhibition at 1 µM ([4]; Mus musculus, Peritoneal macrophage, read-out: inhibition of PGE2 production): 10%
- inhibition of PGE2 production [4]: around 20%
- inhibition at 1 µM [3, 6]: 12%
- inhibition at 2 µM [3, 6]: 18%

SMILES: CC1=C(/C=C/C(C)=C/C=C/C(C)=C/C=C/C=C(C)/C=C/C=C(C)/C=C/C2=C(C)CCCC2(C)C)C(C)(C)CCC1 [beta-carotene]
- inhibition at 2 µM ([1]; Mus musculus, Macrophage, alone, beta-carotene 2 μM): 10%
- inhibition of PGE2 production (in words) [4]: neither lutein (0.5 μM) nor beta-Carotene (1 μM) alone affected PGE2 production
- inhibition of PGE2 production [4]: around 20%

SMILES: CC1=C[C@H](O)CC(C)(C)[C@H]1/C=C/C(C)=C/C=C/C(C)=C/C=C/C=C(C)/C=C/C=C(C)/C=C/C1=C(C)C[C@@H](O)CC1(C)C [lutein]
- inhibition of PGE2 production (in words) [4]: neither lutein (0.5 μM) nor beta-Carotene (1 μM) alone affected PGE2 production
- inhibition at 1 µM ([5]; Mus musculus, Macrophage, 2 μM Curcumin-PC or pure Curcumin, 1 μM Lycomato, 1 μM Lutein, alone or combined, LPS 0.2 μg/ml, 24 h): 5 ± 0.9%

SMILES: COc1cc(/C=C/C(=O)CC(=O)/C=C/c2ccc(O)c(OC)c2)ccc1O [pure curcumin, curcumin]
- inhibition of LPS stimulated NO production ([5]; 2 μM Curcumin-PC or pure Curcumin, 1 μM Lycomato, 1 μM Lutein, alone or combined, LPS 0.2 μg/ml, 24 h): 2±0.4%
- inhibition at 15 µM ([5]; Mus musculus, Macrophage, dose response 0-20 μM, at 15 μM): 75%
- inhibition of NO production (in words) ([5]; alone, 1 μM and 2 μM): non-significant inhibitory effect
